Results published in patent publication US9908912B2, “Triclosan derivatives and uses thereof” (priority 2012, dated 2018).

Tests used:
[1] = system: Citrobacter freundii OCC 851; experiment: MIC in Nutrient Broth No. 2; assay type: cell-based; details: Nutrient Broth No. 2
Experimental: (§1) Bacteria species as indicated in Table 1 were incubated for approximately 24 hours at 37° C.
(§2) The tests were repeated with the addition of inducers. Methyl glycoside was the main inducer used, but other suitable inducers include isopropyl-β-D-thiogalactopyranoside, p-nitrophenyl-α-L-arabinopyranoside and p-nitrophenyl-β-D-xylopyranoside. Concentration of inducer in all cases was 100 μg/ml.

[2] = system: Bacillus cereus ATCC 14579; experiment: MIC in Nutrient Broth No. 2; assay type: cell-based; details: Nutrient Broth No. 2
Experimental: as §1, §2

[3] = system: Bacillus subtilis NCTC 10073; experiment: MIC in Nutrient Broth No. 2; assay type: cell-based; details: Nutrient Broth No. 2
Experimental: as §1, §2

[4] = system: Hafnia alvei ATCC 13337; experiment: MIC in Nutrient Broth No. 2; assay type: cell-based; details: Nutrient Broth No. 2
Experimental: as §1, §2

[5] = system: Escherichia coli; experiment: MIC in Nutrient Broth No. 2; assay type: cell-based; details: 8 strains, Nutrient Broth No. 2
Experimental: as §1, §2

[6] = system: Enterococcus faecalis ATCC 29212; experiment: MIC in Nutrient Broth No. 2; assay type: cell-based; details: Nutrient Broth No. 2
Experimental: as §1, §2

[7] = system: Proteus vulgaris OCC 195; experiment: MIC in Nutrient Broth No. 2; assay type: cell-based; details: Nutrient Broth No. 2
Experimental: as §1, §2

[8] = system: Enterobacter aerogenes ATCC 13048; experiment: MIC in Nutrient Broth No. 2; assay type: cell-based; details: Nutrient Broth No. 2
Experimental: as §1, §2

[9] = system: Salmonella; experiment: MIC in Nutrient Broth No. 2; assay type: cell-based; details: 11 strains, Nutrient Broth No. 2
Experimental: as §1, §2

[10] = system: Aeromonas hydrophila OCC 778; experiment: MIC in Nutrient Broth No. 2; assay type: cell-based; details: Nutrient Broth No. 2
Experimental: as §1, §2

[11] = system: Serratia marcescens OCC 217; experiment: MIC in Nutrient Broth No. 2; assay type: cell-based; details: Nutrient Broth No. 2
Experimental: as §1, §2

[12] = system: Proteus mirabilis ATCC 12453; experiment: MIC in Nutrient Broth No. 2; assay type: cell-based; details: Nutrient Broth No. 2
Experimental: as §1, §2

[13] = system: Ps. Aeruginosa ATCC 27853; experiment: MIC in Nutrient Broth No. 2; assay type: cell-based; details: Nutrient Broth No. 2
Experimental: as §1, §2

[14] = system: C. freundii; experiment: MIC in Nutrient Agar; assay type: cell-based, Citrobacter freundii; details: Nutrient Agar containing 0.1 μg/ml of inducer; 37° C., 24 hours
Experimental: (§3) The triclosan-glycosides were added to Nutrient Agar (Oxoid CM0003; Thermofisher Scientific) and organisms were transferred onto the plates surface using a multi-point inoculation device (Oxoid Cathra, Thermofisher Scientific). The latter is essentially a metal plate containing a number of needles. Each needle tip (usually 36 per plate) dips into an organism suspension (in phosphate buffered saline; PBS) and the needles are then moved over the agar plate and lowered onto its surface. In this way the growth of colonies of up to 36 different organisms can be observed on one plate.
(§4) Nutrient Agar No. 2 was prepared according to the manufacturers instructions, autoclaved and cooled to 50° C. Test compounds were then added as filter sterilised solutions (50:50 deionised water:ethanol), to give final concentrations from 256 μg/ml to 0 μg/ml in doubling dilutions. […] The mixtures were swirled then four plates (25 ml molten agar) were poured for each concentration. Plates were dried in a laminar flow cabinet then inoculated with overnight cultures of organisms that had been decimally diluted twice in sterile saline solution (approximately 10^7 cfu/ml) using a multi-point inoculator. Plates were then incubated at 37° C. for 24 hours. MICs were determined as the concentration at which no growth was observed.

[15] = system: E. hermanii ATCC 33650; experiment: MIC in Nutrient Broth No. 2; assay type: cell-based, Escherichia hermanii; details: Nutrient Broth No. 2
Experimental: as §1, §2

[16] = system: Strep. pyogenes ATCC 19615; experiment: MIC in Nutrient Broth No. 2; assay type: cell-based, Streptococcus pyogenes; details: Nutrient Broth No. 2
Experimental: as §1, §2

[17] = system: Ser. marcescens; experiment: MIC in Nutrient Agar; assay type: cell-based, Serratia marcescens; details: Nutrient Agar containing 0.1 μg/ml of inducer; 37° C., 24 hours
Experimental: as §3, §4

[18] = system: Staph. haemolyticus OCC 2223; experiment: MIC in Nutrient Broth No. 2; assay type: cell-based, Staphylococcus haemolyticus; details: Nutrient Broth No. 2
Experimental: as §1, §2

[19] = system: Str. viridans; experiment: MIC in Nutrient Agar; assay type: cell-based, Streptococcus viridans; details: Nutrient Agar containing 0.1 μg/ml of inducer; 37° C., 24 hours
Experimental: as §3, §4

[20] = system: Strep. agalactiae OCC 182; experiment: MIC in Nutrient Broth No. 2; assay type: cell-based, Streptococcus agalactiae; details: Nutrient Broth No. 2
Experimental: as §1, §2

[21] = system: S. haemolyticus; experiment: MIC in Nutrient Agar; assay type: cell-based, Staphylococcus haemolyticus; details: Nutrient Agar containing 0.1 μg/ml of inducer; 37° C., 24 hours
Experimental: as §3, §4

[22] = system: Kleb. aerogenes NCTC 88167; experiment: MIC in Nutrient Broth No. 2; assay type: cell-based, Klebsiella aerogenes; details: Nutrient Broth No. 2
Experimental: as §1, §2

[23] = system: Staph. aureus; experiment: MIC in Nutrient Broth No. 2; assay type: cell-based, Staphylococcus aureus; details: 8 strains, Nutrient Broth No. 2
Experimental: as §1, §2

[24] = system: Str. pyogenes; experiment: MIC in Nutrient Agar; assay type: cell-based, Streptococcus pyogenes; details: Nutrient Agar containing 0.1 μg/ml of inducer; 37° C., 24 hours
Experimental: as §3, §4

[25] = system: S. saprophyticus; experiment: MIC in Nutrient Agar; assay type: cell-based, Staphylococcus saprophyticus; details: Nutrient Agar containing 0.1 μg/ml of inducer; 37° C., 24 hours
Experimental: as §3, §4

[26] = system: Str. agalactiae; experiment: MIC in Nutrient Agar; assay type: cell-based, Streptococcus agalactiae; details: Nutrient Agar containing 0.1 μg/ml of inducer; 37° C., 24 hours
Experimental: as §3, §4

[27] = system: Bacillus cereus; experiment: MIC in Nutrient Agar; assay type: cell-based; details: Nutrient Agar containing 0.1 μg/ml of inducer; 37° C., 24 hours
Experimental: as §3, §4

[28] = system: Hafnia alvei; experiment: MIC in Nutrient Agar; assay type: cell-based; details: Nutrient Agar containing 0.1 μg/ml of inducer; 37° C., 24 hours
Experimental: as §3, §4

[29] = system: Bacillus subtilis; experiment: MIC in Nutrient Agar; assay type: cell-based; details: Nutrient Agar containing 0.1 μg/ml of inducer; 37° C., 24 hours
Experimental: as §3, §4

[30] = system: Salmonella; experiment: MIC in Nutrient Agar; assay type: cell-based; details: 11 strains; Nutrient Agar containing 0.1 μg/ml of inducer; 37° C., 24 hours
Experimental: as §3, §4

[31] = system: Ps. aeruginosa; experiment: MIC in Nutrient Agar; assay type: cell-based; details: Nutrient Agar containing 0.1 μg/ml of inducer; 37° C., 24 hours
Experimental: as §3, §4

[32] = system: Ent. cloacae ATCC 13047; experiment: MIC in Nutrient Broth No. 2; assay type: cell-based, Enterobacter cloacae; details: Nutrient Broth No. 2
Experimental: as §1, §2

[33] = system: Kleb. aerogenes; experiment: MIC in Nutrient Agar; assay type: cell-based, Klebsiella aerogenes; details: Nutrient Agar containing 0.1 μg/ml of inducer; 37° C., 24 hours
Experimental: as §3, §4

Measured: MIC

OC[C@H]1O[C@H](Oc2cc(Cl)ccc2Oc2ccc(Cl)cc2Cl)[C@@H](O)[C@@H](O)[C@@H]1O [α-D-Mannoside, triclosan-α-D-mannopyranoside]
64 µg/mL: [1]; with inducer 100 μg/ml | [1]; without inducer | [14] | [24]
16 µg/mL: [12]; without inducer | [15]; without inducer
16 to 32 µg/mL: [30]
128 µg/mL: [3]; without inducer | [19] | [20]; with inducer 100 μg/ml | [20]; without inducer | [26] | [27]
32 µg/mL: [7]; with inducer 100 μg/ml | [7]; without inducer | [8]; with inducer 100 μg/ml | [8]; without inducer | [16]; with inducer 100 μg/ml | [16]; without inducer | [22]; with inducer 100 μg/ml | [22]; without inducer | [25] | [33]
4 to 32 µg/mL: [5]; with inducer 100 μg/ml
16 to 64 µg/mL: [9]; without inducer
256 µg/mL: [2]; with inducer 100 μg/ml | [2]; without inducer | [3]; with inducer 100 μg/ml | [6]; with inducer 100 μg/ml | [6]; without inducer | [29]
8 µg/mL: [12]; with inducer 100 μg/ml | [15]; with inducer 100 μg/ml | [18]; with inducer 100 μg/ml | [18]; without inducer | [21] | [32]; with inducer 100 μg/ml | [32]; without inducer
>256 µg/mL: [10]; with inducer 100 μg/ml | [10]; without inducer | [11]; with inducer 100 μg/ml | [11]; without inducer | [13]; with inducer 100 μg/ml | [13]; without inducer | [17] | [31]
4 µg/mL: [4]; with inducer 100 μg/ml | [4]; without inducer | [28]
4 to 64 µg/mL: [5]; without inducer
2 to 8 µg/mL: [23]; with inducer 100 μg/ml | [23]; without inducer
8 to 32 µg/mL: [9]; with inducer 100 μg/ml

O[C@@H]1[C@H](Oc2cc(Cl)ccc2Oc2ccc(Cl)cc2Cl)OC[C@@H](O)[C@H]1O [β-D-Arabinoside, triclosan-β-D-arabinopyranoside]
16 µg/mL: [12]; with inducer 100 μg/ml | [15]; with inducer 100 μg/ml | [18]; with inducer 100 μg/ml | [21] | [32]; with inducer 100 μg/ml | [32]; without inducer
32 to 64 µg/mL: [9]; with inducer 100 μg/ml | [9]; without inducer | [30]
>256 µg/mL: [10]; with inducer 100 μg/ml | [10]; without inducer | [11]; with inducer 100 μg/ml | [11]; without inducer | [13]; with inducer 100 μg/ml | [13]; without inducer | [17] | [31]
4 µg/mL: [4]; with inducer 100 μg/ml | [4]; without inducer
8 to 32 µg/mL: [5]; without inducer
32 µg/mL: [12]; without inducer | [15]; without inducer | [16]; with inducer 100 μg/ml | [16]; without inducer | [22]; with inducer 100 μg/ml | [22]; without inducer
64 µg/mL: [1]; with inducer 100 μg/ml | [1]; without inducer | [7]; with inducer 100 μg/ml | [8]; with inducer 100 μg/ml | [14] | [24] | [25] | [33]
8 µg/mL: [28]
4 to 32 µg/mL: [5]; with inducer 100 μg/ml
128 µg/mL: [2]; with inducer 100 μg/ml | [2]; without inducer | [3]; with inducer 100 μg/ml | [3]; without inducer | [7]; without inducer | [8]; without inducer | [18]; without inducer | [19] | [20]; with inducer 100 μg/ml | [20]; without inducer | [26]
4 to 8 µg/mL: [23]; with inducer 100 μg/ml | [23]; without inducer
256 µg/mL: [6]; with inducer 100 μg/ml | [6]; without inducer | [27] | [29]
